US20240262801A1, “COMPOUNDS HAVING 5-(2-FLUORO-6-HYDROXYPHENYL)-1,2,5-THIADIAZOLIDIN-3-ONE 1,1-DIOXIDE AS INHIBITORS OF PROTEIN KINASE PHOSPHATASE ENZYMES” (Ness Therapeutics, Inc., priority 2021, published 2024)
Where a name gives a salt, the structure may show the parent alone. Read-outs that look alike come from different tables or passages of the source.

Tests used:
GST-tagged PTPN2 protein = target: T1, GST-tagged PTPN2 protein (Homo sapiens, UniProt P17706); test: Primary assay of PTPN2 enzymatic activity inhibition (DiFMUP fluorescence); type: biochemical; settings: DiFMUP substrate 2 μM, 60 min at RT
T1 construct: purchased ActiveMotif 31592
Procedure: Compound activity was determined using GST-tagged PTPN2 protein (Cat #31592, ActiveMotif) (SEQ ID NO: 1) in an in vitro enzymatic reaction. The enzymatic reaction was carried out in assay buffer (50 mM HEPES Na salt pH 7.2-7.4, 2 mM EDTA, 100 mM NaCl, 52 ng/μL BSA, and 6 mM DTT). The compounds were dispensed on a 384 well Diamond Well Plate (Axigen, Cat #P-384-120SQ-C-S) using the Biomek FX liquid handling system at 100× solutions of compounds in DMSO. 2× PTPN2 (final concentration 0.004 ng/μL) was prepared in 1× Assay buffer and 25 μL of mixture per well was added into Reaction plate (Optiplate, black, Perkin Elmer, Cat #6007270). Add 25 μL of 1× buffer to Ctrl- (Substrate w/o PTPN2) wells followed by centrifugation at 100 g for 1 min. Next step the Compounds were added to Reaction plate using Biomek station via following steps: 3 ul of 100× compounds (in DMSO) were mixed with 27 μL of Assay Buffer, then 5 μL of this mixture was added to Reaction plate with 25 μL of PTPN2 Mix. Plates were centrifuged for 1 min at 100 g and incubated for another 10 minutes at room temperature. Finally, 20 μL of 2.5× Substrate (DiFUMP, Invitrogen™ Cat #D6567) mix was added into appropriate wells of Reaction plate to the final concentration of 2 μM, plate was centrifuged at 100 g for 1 min followed by incubation at RT for 60 min, and the Fluorescence Intensity was measured using a Microplate Reader (ClarioStar Plus, excitation 360 nm, emission 450 nm). The % inhibition was then used to calculate the IC50 values. The IC50 values are shown in Table A1, wherein “A” corresponds to IC50<5.0 nm, “B” corresponds to 5.0 nm≤IC50<10.0 nm, “C” corresponds to 10.0 nm≤IC50<50.0 nm, “D” corresponds to 50.0 nm≤IC50<100.0 nm, and “E” corresponds to 100.0 nm≤IC50<500.0 nm, and “F” corresponds to 500.0 nm≤IC50.

[1] = tested on: B16F10 mouse melanoma cells; test: Tumor cells B16F10 cellular growth IFNγ-induced inhibition assay (CellTiter-Glo); type: cell-based; settings: for IC50: B16-F10, 72 h, 3 days incubation; for inhibition at 100 µM: B16-F10, B16F10, 100 μM compound
Procedure: B16F10 mouse melanoma cells (ATCC Cat #CRL-6475) were seeded at a density of 500 cells per well in a 384-well clear bottom plate (Corning Cat #3712, Corning, N.Y.) in 40 μL total volume of DMEM+10% FBS (PanEco Cat #C420, Russia and Sigma Cat #F4135, St. Louis, Mo.). Cells were allowed to adhere overnight at 37° C., 5% CO2. On the following day, 250× solutions of compounds in DMSO (Sigma Cat #D2650) were prepared into […] plate (Diamond Well Plate, Axigen, Cat #P-384-120SQ-C-S) (final concentration of 1×) and DMSO only controls were included. Dilution Plate (Diamond Well Plate (Axigen, Cat #P-384-120SQ-C-S) was prepared by adding 49 μL of culture medium per well: half of the plate with culture medium only, half with culture medium+IFNγ (5 ng/ml). A 1 μL aliquot of 250× compounds ([…] plate) was added to 49 μL of culture medium (Dilution plate), then a 10 μL aliqut of the mixture was transferred to Reaction plate with 40 μL of cells followed by centrifugation at 240 g for 1 min. After 3 days of incubation, 10 μL of CellTiter-Glo (Promega) was added to the cells, plates were centrifuged at 240 g for 1 min, and luminescence signal was measured. For each compound, the percent growth inhibition at every compound dose level was calculated relative to the “DMSO/with IFNγ” control and used to determine the IC50.

[2] = B16F10, + IFNγ, read-out: IC50 + IFNγ
[3] = B16F10, no IFNγ, read-out: IC50 no IFNγ
[4] = + IFNγ, read-out: % Growth Inhibition at 100 μM + IFNγ
[5] = no IFNγ, read-out: % Growth Inhibition at 100 μM no IFNγ

T1 sequence (P17706 with tags, fused parts or gaps): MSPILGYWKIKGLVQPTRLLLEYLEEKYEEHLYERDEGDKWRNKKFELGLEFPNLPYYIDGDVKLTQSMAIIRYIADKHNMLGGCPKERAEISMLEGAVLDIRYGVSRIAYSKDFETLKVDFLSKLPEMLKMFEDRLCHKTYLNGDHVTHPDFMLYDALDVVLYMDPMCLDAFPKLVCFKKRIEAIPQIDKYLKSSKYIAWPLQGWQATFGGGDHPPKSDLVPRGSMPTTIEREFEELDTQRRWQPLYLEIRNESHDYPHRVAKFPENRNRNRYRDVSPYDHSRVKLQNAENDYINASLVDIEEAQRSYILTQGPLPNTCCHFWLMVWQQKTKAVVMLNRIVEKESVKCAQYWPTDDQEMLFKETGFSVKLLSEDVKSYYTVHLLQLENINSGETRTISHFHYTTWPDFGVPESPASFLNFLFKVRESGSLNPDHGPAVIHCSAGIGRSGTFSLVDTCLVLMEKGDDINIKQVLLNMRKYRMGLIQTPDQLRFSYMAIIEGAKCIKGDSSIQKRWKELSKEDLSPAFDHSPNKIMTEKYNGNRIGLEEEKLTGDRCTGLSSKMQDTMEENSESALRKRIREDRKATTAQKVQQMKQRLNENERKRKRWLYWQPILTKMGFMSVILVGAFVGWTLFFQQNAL

SMILES	IC50 (GST-tagged PTPN2 protein) [nM]	IC50 [1, 2] [nM]	IC50 [1, 3] [nM]	inhibition at 100 µM [1, 4] [%]	inhibition at 100 µM [1, 5] [%]
O=C1CN(c2c(O)cc(NC(=O)c3ccccc3)cc2F)S(=O)(=O)N1 [Example 13, N-[4-(1,1-dioxido-4-oxo-1,2,5-thiadiazolidin-2-yl)-3-fluoro-5-hydroxyphenyl]benzamide]	100 to 500	≥ 100000	≥ 100000	10 to 50	10 to 50
Cc1ccc(-c2cc(C(F)(F)F)nn2-c2ccc(S(=O)(=O)Nc3cc(O)c(N4CC(=O)NS4(=O)=O)c(F)c3)cc2)cc1 [Example 19, N-[4-(1,1-dioxido-4-oxo-1,2,5-thiadiazolidin-2-yl)-3-fluoro-5-hydroxyphenyl]-4-[5-(4-methylphenyl)-3-(trifluoromethyl)-1H-pyrazol-1-yl]benzenesulfonamide]	100 to 500	≥ 100000	≥ 100000	10 to 50	10 to 50
O=C1CN(c2c(O)cc(NC(=O)N[C@H]3CC[C@H](CO)CC3)cc2F)S(=O)(=O)N1 [Example 107, 1-[3-fluoro-5-hydroxy-4-(1,1,4-trioxo-1,2,5-thiadiazolidin-2-yl)phenyl]-3-[4-(hydroxymethyl)-cyclohexyl]urea]	< 5	5000 to 10000	≥ 100000	50 to 75	10 to 50
O=C1CN(c2c(O)cc(-c3ccccc3F)cc2F)S(=O)(=O)N1 [Example 7, 5-(2′,3-difluoro-5-hydroxybiphenyl-4-yl)-1,2,5-thiadiazolidin-3-one 1,1-dioxide]	100 to 500	50000 to 100000	≥ 100000	50 to 75	10 to 50
O=C1CN(c2c(O)cc(-c3cccc(F)c3)cc2F)S(=O)(=O)N1 [Example 2, 5-(3,3′-difluoro-5-hydroxybiphenyl-4-yl)-1,2,5-thiadiazolidin-3-one 1,1-dioxide]	100 to 500	50000 to 100000	≥ 100000	50 to 75	10 to 50
CC(C)(C)OC(=O)N1CCN(c2ccc(NC(=O)Nc3cc(O)c(N4CC(=O)NS4(=O)=O)c(F)c3)cc2)CC1 [Example 66, tert-butyl 4-[4-({[4-(1,1-dioxido-4-oxo-1,2,5-thiadiazolidin-2-yl)-3-fluoro-5-hydroxyphenyl]carbamoyl}amino)phenyl]piperazine-1-carboxylate]	< 5				
Cc1ccccc1-c1cc(O)c(N2CC(=O)NS2(=O)=O)c(F)c1 [Example 6, 5-(3-fluoro-5-hydroxy-2′-methylbiphenyl-4-yl)-1,2,5-thiadiazolidin-3-one 1,1-dioxide]	≥ 500				
Cc1cccc(-c2cc(O)c(N3CC(=O)NS3(=O)=O)c(F)c2)c1 [Example 9, 5-(3-fluoro-5-hydroxy-3′-methylbiphenyl-4-yl)-1,2,5-thiadiazolidin-3-one 1,1-dioxide]	100 to 500				
O=C1CN(c2c(O)cc(NC(=O)Nc3ccccc3F)cc2F)S(=O)(=O)N1 [Example 93, 1-[4-(1,1-dioxido-4-oxo-1,2,5-thiadiazolidin-2-yl)-3-fluoro-5-hydroxyphenyl]-3-(2-fluorophenyl)urea]	< 5				

Further lines, with some results ahead:

IC50 (GST-tagged PTPN2 protein) [nM]	IC50 [1, 2] [nM]	IC50 [1, 3] [nM]	SMILES	inhibition at 100 µM [1, 4] [%]	inhibition at 100 µM [1, 5] [%]
10 to 50	10000 to 50000	≥ 100000	O=C1CN(c2c(O)cc(NC(=O)NC3CCNCC3)cc2F)S(=O)(=O)N1 [Example 99, 1-[3-fluoro-5-hydroxy-4-(1,1,4-trioxo-1,2,5-thiadiazolidin-2-yl)phenyl]-3-(4-piperidyl)urea]	50 to 75	10 to 50
10 to 50			CN(C1CCCCC1)S(=O)(=O)Nc1cc(O)c(N2CC(=O)NS2(=O)=O)c(F)c1 [Example 32, N-cyclohexyl-N′-[4-(1,1-dioxido-4-oxo-1,2,5-thiadiazolidin-2-yl)-3-fluoro-5-hydroxyphenyl]-N-methylsulfuric diamide]		
10 to 50	10000 to 50000	≥ 100000	COc1ccc(CNC(=O)Nc2cc(O)c(N3CC(=O)NS3(=O)=O)c(F)c2)cc1 [Example 63, 1-[4-(1,1-dioxido-4-oxo-1,2,5-thiadiazolidin-2-yl)-3-fluoro-5-hydroxyphenyl]-3-(4-methoxybenzyl)urea]	75 to 100	10 to 50
< 5	≥ 100000	≥ 100000	COc1ccc(NC(=O)Nc2cc(O)c(N3CC(=O)NS3(=O)=O)c(F)c2)cc1 [Example 37, 1-[4-(1,1-dioxido-4-oxo-1,2,5-thiadiazolidin-2-yl)-3-fluoro-5-hydroxyphenyl]-3-(4-methoxyphenyl)urea]	10 to 50	10 to 50
< 5	50000 to 100000	≥ 100000	CC(C)(C)OC(=O)N1CCCC(NC(=O)Nc2cc(O)c(N3CC(=O)NS3(=O)=O)c(F)c2)C1 (stereo not shown) [Example 106, tert-butyl 3-[[3-fluoro-5-hydroxy-4-(1,1,4-trioxo-1,2,5-thiadiazolidin-2-yl)phenyl]carbamoylamino]piperidine-1-carboxylate]	50 to 75	10 to 50
< 5			CC(C)c1ccc(NC(=O)Nc2cc(O)c(N3CC(=O)NS3(=O)=O)c(F)c2)cc1 [Example 70, 1-[4-(1,1-dioxido-4-oxo-1,2,5-thiadiazolidin-2-yl)-3-fluoro-5-hydroxyphenyl]-3-[4-(propan-2-yl)phenyl]urea]		
< 5			O=C1CN(c2c(O)cc(NC(=O)Nc3ccc(OC(F)(F)F)cc3)cc2F)S(=O)(=O)N1 [Example 71, 1-[4-(1,1-dioxido-4-oxo-1,2,5-thiadiazolidin-2-yl)-3-fluoro-5-hydroxyphenyl]-3-[4-(trifluoromethoxy)phenyl]urea]		
10 to 50			CN(c1ccccc1)S(=O)(=O)Nc1cc(O)c(N2CC(=O)NS2(=O)=O)c(F)c1 [Example 31, N′-[4-(1,1-dioxido-4-oxo-1,2,5-thiadiazolidin-2-yl)-3-fluoro-5-hydroxyphenyl]-N-methyl-N-phenylsulfuric diamide]		
< 5			O=C1CN(c2c(O)cc(NC(=O)Nc3ccc(N4CCOCC4)cc3)cc2F)S(=O)(=O)N1 [Example 65, 1-[4-(1,1-dioxido-4-oxo-1,2,5-thiadiazolidin-2-yl)-3-fluoro-5-hydroxyphenyl]-3-[4-(morpholin-4-yl)phenyl]urea]		
100 to 500			Cc1ccc(-c2cc(O)c(N3CC(=O)NS3(=O)=O)c(F)c2)cc1 [Example 10, 5-(3-fluoro-5-hydroxy-4′-methylbiphenyl-4-yl)-1,2,5-thiadiazolidin-3-one 1,1-dioxide]		
< 5			COc1ccc(NC(=O)Nc2cc(O)c(N3CC(=O)NS3(=O)=O)c(F)c2)cc1C(F)(F)F [Example 68, 1-[4-(1,1-dioxido-4-oxo-1,2,5-thiadiazolidin-2-yl)-3-fluoro-5-hydroxyphenyl]-3-[4-methoxy-3-(trifluoromethyl)phenyl]urea]		
10 to 50			O=C1CN(c2c(O)cc(NC(=O)NCc3ccccc3)cc2F)S(=O)(=O)N1 [Example 60, 1-benzyl-3-[4-(1,1-dioxido-4-oxo-1,2,5-thiadiazolidin-2-yl)-3-fluoro-5-hydroxyphenyl]urea]		
< 5			O=C1CN(c2c(O)cc(NC(=O)Nc3ccc(N4CCNCC4)cc3)cc2F)S(=O)(=O)N1 [Example 67, 1-[4-(1,1-dioxido-4-oxo-1,2,5-thiadiazolidin-2-yl)-3-fluoro-5-hydroxyphenyl]-3-[4-(piperazin-1-yl)phenyl]urea hydrochloride]		
